Source: patent publication US7626005B2, “Inhibitors of aminoglycoside 6′-N-acetyltransferases, compositions and uses thereof” (priority 2005, dated 2009)

What was measured:
AAC(6′)-Ii [1] = biological target: T1, AAC(6′)-Ii (Enterococcus faecium, UniProt Q47764); conditions: read-out: Michaelis-Menten constant (Km); acetyl CoA as substrate of AAC(6′)-Ii; cited from earlier work
AAC(6′)-Iy = biological target: T2, AAC(6′)-Iy (Salmonella enteritidis, UniProt Q9R381); experiment: Inhibition assay of AAC(6′)-Iy; assay type: biochemical, Salmonella enterica; conditions: for Ki: Table 2
T2 sequence (Q9R381 1-145): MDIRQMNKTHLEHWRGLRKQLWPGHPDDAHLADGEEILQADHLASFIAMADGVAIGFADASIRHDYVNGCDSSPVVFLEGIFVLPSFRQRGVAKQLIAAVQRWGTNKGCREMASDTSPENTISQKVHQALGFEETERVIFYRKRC

AAC(6′)-Ii [2] = biological target: T1, AAC(6′)-Ii; experiment: AAC6′-Ii inhibition assay (DTDP-coupled, varying AcCoA); assay type: biochemical; design: made in house; host or cells: Escherichia coli BL21; conditions: for type of inhibition (in words): versus acetylCoA; for Vm: maximal velocity from the fit of the inhibition assay; for enhanced inhibition of AAC(6′)-Ii as compared to lysine-CoA conjugates (3a and 3b): relative to 3a and 3b
Description: AAC(6′)-Ii was obtained using a previously described protocol (Wright and Ladak, 1997). The Escherichia coli strain BL21 was transformed with a pET22b expression plasmid containing the AAC(6′)-Ii gene. The bacteria were grown in Luria-Bertani (LB) media at 37° C. containing ampicillin (100 μg/mL). Expression of the protein was induced using isopropyl-β-D-thiogalactoside (IPTG). After harvesting the cells by centrifugation and washing them with a 0.85% NaCl solution, the cells were lysed by sonication. AAC(6′)-Ii was purified in a two-step process: firstly, the lysate was ran through a Q-Sepharose ion exchange column (GE Healthsciences), and secondly the AAC(6′)-Ii containing fractions were further purified using a Gentamicin agarose affinity column (BioRad).
Enzyme activity was monitored using a procedure described elsewhere (Williams and Northrop, 1978). Thus, reaction mixtures in HEPES (1 mM, pH=7.5) and containing 4,4′-dithiodipyridine (DTDP, 2 mM), aminoglycoside (200 μM), and AAC(6′)-Ii (25 μg/mL) were prepared with varying concentrations of AcCoA. Reaction volumes were typically 400 μl. The assay mixtures were preincubated for 1 min at 37° C. The initial rates V were fit to Equation S1, where [S] is the concentration of AcCoA, Km is the Michaelis-Menten constant, and Vm is the maximal velocity: [S]/V=[S]/Vm+Km/Vm (S1)
The initial reaction velocity (steady-state) in the presence of inhibitors was measured as described above. The initial rates obtained at various concentrations of inhibitor were fit to Equation S2 for competitive inhibition, to Equation S3 for […] inhibition, or to Equation S4 for uncompetitive inhibition, where [I] is the concentration of inhibitor and Ki is the inhibition constant: [S]/V=[S]/Vm+(1+[I]/Ki)Km/Vm (S2) [S]/V=(1+[I]/Ki)[S]/Vm+Km/Vm (S3) [S]/V=(1+[I]/Ki)[S]/Vm+(1+[I]/Ki)Km/Vm (S4)

[3] = Ki (μM), Table 1, inhibition of AAC(6′)-Ii, varying AcCoA
[4] = inhibition constant (Ki), running text b80

T1 sequence (Q47764 1-182): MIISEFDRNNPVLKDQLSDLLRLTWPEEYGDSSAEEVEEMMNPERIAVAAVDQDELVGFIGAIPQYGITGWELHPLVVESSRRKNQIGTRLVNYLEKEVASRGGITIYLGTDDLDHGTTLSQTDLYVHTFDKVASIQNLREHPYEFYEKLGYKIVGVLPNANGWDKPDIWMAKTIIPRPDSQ

SMILES | Km (AAC(6′)-Ii [1]) [µM] | Ki values (in words) (AAC(6′)-Iy) | Ki (AAC(6′)-Iy) [µM] | Ki values (in words) (AAC(6′)-Ii [2]) | Ki (AAC(6′)-Ii [2]; AAC(6′)-Ii [Ki, (μM)], Table 2) [µM] | type of inhibition (in words) (AAC(6′)-Ii [2]) | inhibition of AAC(6′)-Ii (in words) (AAC(6′)-Ii [2]) | Ki (AAC(6′)-Ii [2]; [3]) [µM] | Ki (AAC(6′)-Ii [2]; [4]) [µM] | Vm (AAC(6′)-Ii [2]; Table 1) [µM/s] | enhanced inhibition of AAC(6′)-Ii as compared to lysine-CoA conjugates (3a and 3b) (AAC(6′)-Ii [2]) [fold] | type of inhibition (in words) (AAC(6′)-Ii [2]; listed as 10)
CC(=O)SCCNC(=O)CCNC(=O)[C@H](O)C(C)(C)COP(=O)(O)OP(=O)(O)OC[C@H]1O[C@@H](n2cnc3c(N)ncnc32)[C@H](O)[C@@H]1OP(=O)(O)O [acetyl CoA, Acetyl Coenzyme A] | 23.5 |  |  |  |  |  |  |  |  |  |  | 
CC(C)(COP(=O)(O)OP(=O)(O)OCC1OC(n2cnc3c(N)ncnc32)C(O)C1OP(=O)(O)O)C(O)C(=O)NCCC(=O)NCCSCCCC(=O)NCC1OC(OC2C(N)CC(N)C(O)C2O)C(N)C(O)C1O (centres unmarked) [Compound 10c] |  | near submicromolar | 2.1 ± 0.3 | submicromolar range | 0.161 ± 0.098 | potent competitive inhibitors |  |  |  |  |  | 
COC(=O)C(CCCCNC(=O)CCSCCNC(=O)CCNC(=O)C(O)C(C)(C)COP(=O)(O)OP(=O)(O)OCC1OC(n2cnc3c(N)ncnc32)C(O)C1OP(=O)(O)O)NC(C)=O (centres unmarked) [Compound 3b] |  |  |  |  |  | moderate competitive inhibition | moderate inhibition | ≥ 30 | 30 |  |  | 
CC(C)(COP(=O)(O)OP(=O)(O)OCC1OC(n2cnc3c(N)ncnc32)C(O)C1OP(=O)(O)O)C(O)C(=O)NCCC(=O)NCCSCC(=O)NCC1OC(OC2C(N)CC(N)C(O)C2O)C(N)C(O)C1O (centres unmarked) [Compound 10a] |  | near submicromolar | 2.76 ± 0.4 | submicromolar range | 0.076 ± 0.025 | potent competitive inhibitors |  | 0.076 ± 0.025 |  | 0.15 ± 0.01 | 500 | competitive inhibition versus acetylCoA
CC(C)(COP(=O)(O)OP(=O)(O)OCC1OC(n2cnc3c(N)ncnc32)C(O)C1OP(=O)(O)O)C(O)C(=O)NCCC(=O)NCCSCCCCC(=O)NCC1OC(OC2C(N)CC(N)C(O)C2O)C(N)C(O)C1O (centres unmarked) [Compound 10d] |  | near submicromolar | 1.9 ± 0.3 |  | 7.99 ± 2.66 |  |  |  |  |  |  | 
CC(C)(COP(=O)(O)OP(=O)(O)OCC1OC(n2cnc3c(N)ncnc32)C(O)C1OP(=O)(O)O)C(O)C(=O)NCCC(=O)NCCSCC(=O)NCC1OC(OC2C(N)CC(N)C(O)C2OC2OC(CO)C(O)C2O)C(N)C(O)C1O (centres unmarked) [Compound 12] |  |  | 1.1 ± 0.1 |  | 0.119 ± 0.014 | competitive inhibition versus acetylCoA |  | 0.119 ± 0.014 |  | 0.14 ± 0.04 | 500 | 
COC(=O)C(CCCCNC(=O)CSCCNC(=O)CCNC(=O)C(O)C(C)(C)COP(=O)(O)OP(=O)(O)OCC1OC(n2cnc3c(N)ncnc32)C(O)C1OP(=O)(O)O)NC(C)=O (centres unmarked) [Compound 3a] |  |  |  |  |  | moderate competitive inhibition | moderate inhibition | ≥ 130 | 130 |  |  | 
CC(C)(COP(=O)(O)OP(=O)(O)OCC1OC(n2cnc3c(N)ncnc32)C(O)C1OP(=O)(O)O)C(O)C(=O)NCCC(=O)NCCSCCC(=O)NCC1OC(OC2C(N)CC(N)C(O)C2O)C(N)C(O)C1O (centres unmarked) [Compound 10b] |  | near submicromolar | 1.89 ± 0.3 | submicromolar range | 0.043 ± 0.023 | potent competitive inhibitors | highest inhibition among all the inhibitors |  |  |  |  | 
